Measurements: the kinase profiling compilation of Christmann-Franck et al. (2016)

Experiments:
Assay in all cases: KINOMEscan competition binding
Conditions in all cases: compound 1.0 µM
[1] = tested on: ABL1 (human), P00519 [M351T]
BMP2K (human) = BMP2K (human) (UniProt Q9NSY1)
[2] = tested on: BRAF (human), P15056 [V600E]
CDK11B (human) = CDK11B (human) (UniProt P21127)
CDK4 CCND1 (human) = CDK4 CCND1 (human) (UniProt P11802+P24385)
CDK7 (human) = CDK7 (human) (UniProt P50613)
CDKL1 (human) = CDKL1 (human) (UniProt Q00532)
CLK3 (human) = CLK3 (human) (UniProt P49761)
DCLK2 (human) = DCLK2 (human) (UniProt Q8N568)
[3] = tested on: EGFR (human), P00533 [P753S; 747-752 del]
EPHA1 (human) = EPHA1 (human) (UniProt P21709)
FER (human) = FER (human) (UniProt P16591)
[4] = tested on: FLT3 (human), P36888 [D835H]
GRK4 (human) = GRK4 (human) (UniProt P32298)
[5] = tested on: KIT (human), P10721 [V559D/T670I]
LCK (human) = LCK (human) (UniProt P06239)
MAP2K2 (human) = MAP2K2 (human) (UniProt P36507)
MAP3K1 (human) = MAP3K1 (human) (UniProt Q13233)
MARK4 (human) = MARK4 (human) (UniProt Q96L34)
MAST1 (human) = MAST1 (human) (UniProt Q9Y2H9)
MKNK1 (human) = MKNK1 (human) (UniProt Q9BUB5)
MST1R (human) = MST1R (human) (UniProt Q04912)
MYLK3 (human) = MYLK3 (human) (UniProt Q32MK0)
NUAK1 (human) = NUAK1 (human) (UniProt O60285)
NUAK2 (human) = NUAK2 (human) (UniProt Q9H093)
PAK3 (human) = PAK3 (human) (UniProt O75914)
PHKG1 (human) = PHKG1 (human) (UniProt Q16816)
[6] = tested on: PIK3CA (human), P42336 [E545K]
[7] = tested on: PIK3CA (human), P42336 [H1047Y]
PIK3CD (human) = PIK3CD (human) (UniProt O00329)
PRKCI (human) = PRKCI (human) (UniProt P41743)
PRKD2 (human) = PRKD2 (human) (UniProt Q9BZL6)
RPS6KA1 KD2 (human) = RPS6KA1 KD2 (human) (UniProt Q15418)
RPS6KA5 KD1 (human) = RPS6KA5 KD1 (human) (UniProt O75582)
RPS6KA6 KD1 (human) = RPS6KA6 KD1 (human) (UniProt Q9UK32)
SRPK1 (human) = SRPK1 (human) (UniProt Q96SB4)
SRPK3 (human) = SRPK3 (human) (UniProt Q9UPE1)
STK17B (human) = STK17B (human) (UniProt O94768)
STK38 (human) = STK38 (human) (UniProt Q15208)
TIE1 (human) = TIE1 (human) (UniProt P35590)
[8] = molecular target: TYK2 JH2 pseudokinase (human) (UniProt P29597)
ZAP70 (human) = ZAP70 (human) (UniProt P43403)

CLK3 (human), sequence (P49761 whole entry, looked up): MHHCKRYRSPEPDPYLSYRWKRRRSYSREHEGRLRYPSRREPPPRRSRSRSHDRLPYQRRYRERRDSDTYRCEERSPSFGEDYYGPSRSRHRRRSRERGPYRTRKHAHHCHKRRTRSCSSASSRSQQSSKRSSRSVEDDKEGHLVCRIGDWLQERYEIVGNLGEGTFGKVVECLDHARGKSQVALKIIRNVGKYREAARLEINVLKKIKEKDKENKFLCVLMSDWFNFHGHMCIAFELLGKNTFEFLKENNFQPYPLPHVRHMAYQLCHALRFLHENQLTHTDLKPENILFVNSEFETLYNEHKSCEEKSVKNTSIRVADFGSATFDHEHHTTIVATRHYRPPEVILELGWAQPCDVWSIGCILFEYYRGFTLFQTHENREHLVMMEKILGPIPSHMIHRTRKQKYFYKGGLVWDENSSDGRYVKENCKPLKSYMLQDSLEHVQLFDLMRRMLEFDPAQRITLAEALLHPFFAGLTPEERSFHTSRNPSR
CDK7 (human), sequence (P50613 whole entry, looked up): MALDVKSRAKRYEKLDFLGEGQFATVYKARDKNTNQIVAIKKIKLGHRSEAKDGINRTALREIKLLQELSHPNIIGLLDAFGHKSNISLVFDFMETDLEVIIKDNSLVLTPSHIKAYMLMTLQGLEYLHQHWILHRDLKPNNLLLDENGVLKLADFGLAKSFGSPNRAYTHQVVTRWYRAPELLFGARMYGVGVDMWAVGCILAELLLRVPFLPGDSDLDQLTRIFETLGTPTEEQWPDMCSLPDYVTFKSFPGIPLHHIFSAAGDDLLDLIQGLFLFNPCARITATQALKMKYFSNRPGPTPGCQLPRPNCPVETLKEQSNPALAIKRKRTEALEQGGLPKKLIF
FER (human), sequence (P16591 whole entry, looked up): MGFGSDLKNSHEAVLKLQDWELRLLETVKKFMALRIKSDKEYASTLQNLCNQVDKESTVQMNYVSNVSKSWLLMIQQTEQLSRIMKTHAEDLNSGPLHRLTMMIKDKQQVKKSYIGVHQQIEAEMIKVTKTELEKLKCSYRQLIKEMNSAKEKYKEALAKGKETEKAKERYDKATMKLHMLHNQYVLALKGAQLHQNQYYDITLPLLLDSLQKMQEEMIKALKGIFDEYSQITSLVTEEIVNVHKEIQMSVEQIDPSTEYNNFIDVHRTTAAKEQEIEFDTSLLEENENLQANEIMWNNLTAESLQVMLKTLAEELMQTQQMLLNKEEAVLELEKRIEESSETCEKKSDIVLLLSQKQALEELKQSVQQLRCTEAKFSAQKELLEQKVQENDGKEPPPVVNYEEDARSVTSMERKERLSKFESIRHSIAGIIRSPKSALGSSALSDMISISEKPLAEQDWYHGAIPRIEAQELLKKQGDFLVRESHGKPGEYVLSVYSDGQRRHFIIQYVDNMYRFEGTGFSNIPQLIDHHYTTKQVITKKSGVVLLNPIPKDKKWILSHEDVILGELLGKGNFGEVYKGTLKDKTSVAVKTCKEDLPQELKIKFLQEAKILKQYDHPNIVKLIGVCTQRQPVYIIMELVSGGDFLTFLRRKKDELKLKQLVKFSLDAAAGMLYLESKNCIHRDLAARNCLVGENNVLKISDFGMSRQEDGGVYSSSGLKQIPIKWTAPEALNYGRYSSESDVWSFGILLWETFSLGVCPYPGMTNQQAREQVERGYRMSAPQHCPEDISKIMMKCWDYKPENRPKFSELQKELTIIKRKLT
MARK4 (human), sequence (Q96L34 whole entry, looked up): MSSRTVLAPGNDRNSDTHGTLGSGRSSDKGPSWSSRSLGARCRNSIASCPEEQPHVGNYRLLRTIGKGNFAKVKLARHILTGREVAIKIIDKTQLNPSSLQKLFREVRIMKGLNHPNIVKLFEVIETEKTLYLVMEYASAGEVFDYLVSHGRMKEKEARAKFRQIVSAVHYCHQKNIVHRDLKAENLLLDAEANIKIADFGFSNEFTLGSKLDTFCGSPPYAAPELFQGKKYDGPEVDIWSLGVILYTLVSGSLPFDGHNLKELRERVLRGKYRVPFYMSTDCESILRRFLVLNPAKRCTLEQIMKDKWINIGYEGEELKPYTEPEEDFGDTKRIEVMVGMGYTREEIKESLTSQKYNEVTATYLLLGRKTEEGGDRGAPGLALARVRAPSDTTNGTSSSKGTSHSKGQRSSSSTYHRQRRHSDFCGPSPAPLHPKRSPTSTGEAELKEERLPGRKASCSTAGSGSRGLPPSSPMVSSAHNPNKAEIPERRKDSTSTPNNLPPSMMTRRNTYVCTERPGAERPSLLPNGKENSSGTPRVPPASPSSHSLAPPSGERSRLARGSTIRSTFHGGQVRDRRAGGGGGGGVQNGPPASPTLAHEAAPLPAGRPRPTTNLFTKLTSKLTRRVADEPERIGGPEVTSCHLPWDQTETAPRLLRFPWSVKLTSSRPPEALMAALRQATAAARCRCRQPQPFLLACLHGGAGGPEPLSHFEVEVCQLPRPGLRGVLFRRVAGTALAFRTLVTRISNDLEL
SRPK3 (human), sequence (Q9UPE1 whole entry, looked up): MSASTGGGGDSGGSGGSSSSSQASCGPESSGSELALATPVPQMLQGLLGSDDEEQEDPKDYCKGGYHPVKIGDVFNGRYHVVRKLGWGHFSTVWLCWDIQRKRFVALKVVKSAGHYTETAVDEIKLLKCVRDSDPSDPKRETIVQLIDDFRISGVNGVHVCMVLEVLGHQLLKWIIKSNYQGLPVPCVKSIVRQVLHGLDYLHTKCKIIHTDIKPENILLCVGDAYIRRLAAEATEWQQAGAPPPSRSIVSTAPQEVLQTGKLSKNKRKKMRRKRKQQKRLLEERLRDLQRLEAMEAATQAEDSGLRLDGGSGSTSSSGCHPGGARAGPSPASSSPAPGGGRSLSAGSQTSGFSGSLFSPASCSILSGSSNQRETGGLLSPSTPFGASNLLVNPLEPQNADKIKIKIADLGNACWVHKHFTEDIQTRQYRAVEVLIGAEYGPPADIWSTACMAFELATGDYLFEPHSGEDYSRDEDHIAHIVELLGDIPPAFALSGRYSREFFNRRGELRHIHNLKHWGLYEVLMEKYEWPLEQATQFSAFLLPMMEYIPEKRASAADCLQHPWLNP
PHKG1 (human), sequence (Q16816 whole entry, looked up): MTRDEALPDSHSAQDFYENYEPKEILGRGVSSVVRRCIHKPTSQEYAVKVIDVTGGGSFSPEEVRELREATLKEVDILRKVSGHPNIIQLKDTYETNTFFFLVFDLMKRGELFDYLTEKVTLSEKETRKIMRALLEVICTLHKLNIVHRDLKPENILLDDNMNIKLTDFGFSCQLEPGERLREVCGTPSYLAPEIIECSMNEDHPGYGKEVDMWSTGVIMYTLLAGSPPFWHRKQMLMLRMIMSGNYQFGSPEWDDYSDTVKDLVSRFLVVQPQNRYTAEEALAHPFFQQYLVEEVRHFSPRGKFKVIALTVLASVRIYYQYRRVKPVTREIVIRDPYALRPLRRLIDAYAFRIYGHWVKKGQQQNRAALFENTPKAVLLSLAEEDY
PIK3CA (human), P42336 [E545K], sequence (P42336 whole entry E545K, looked up): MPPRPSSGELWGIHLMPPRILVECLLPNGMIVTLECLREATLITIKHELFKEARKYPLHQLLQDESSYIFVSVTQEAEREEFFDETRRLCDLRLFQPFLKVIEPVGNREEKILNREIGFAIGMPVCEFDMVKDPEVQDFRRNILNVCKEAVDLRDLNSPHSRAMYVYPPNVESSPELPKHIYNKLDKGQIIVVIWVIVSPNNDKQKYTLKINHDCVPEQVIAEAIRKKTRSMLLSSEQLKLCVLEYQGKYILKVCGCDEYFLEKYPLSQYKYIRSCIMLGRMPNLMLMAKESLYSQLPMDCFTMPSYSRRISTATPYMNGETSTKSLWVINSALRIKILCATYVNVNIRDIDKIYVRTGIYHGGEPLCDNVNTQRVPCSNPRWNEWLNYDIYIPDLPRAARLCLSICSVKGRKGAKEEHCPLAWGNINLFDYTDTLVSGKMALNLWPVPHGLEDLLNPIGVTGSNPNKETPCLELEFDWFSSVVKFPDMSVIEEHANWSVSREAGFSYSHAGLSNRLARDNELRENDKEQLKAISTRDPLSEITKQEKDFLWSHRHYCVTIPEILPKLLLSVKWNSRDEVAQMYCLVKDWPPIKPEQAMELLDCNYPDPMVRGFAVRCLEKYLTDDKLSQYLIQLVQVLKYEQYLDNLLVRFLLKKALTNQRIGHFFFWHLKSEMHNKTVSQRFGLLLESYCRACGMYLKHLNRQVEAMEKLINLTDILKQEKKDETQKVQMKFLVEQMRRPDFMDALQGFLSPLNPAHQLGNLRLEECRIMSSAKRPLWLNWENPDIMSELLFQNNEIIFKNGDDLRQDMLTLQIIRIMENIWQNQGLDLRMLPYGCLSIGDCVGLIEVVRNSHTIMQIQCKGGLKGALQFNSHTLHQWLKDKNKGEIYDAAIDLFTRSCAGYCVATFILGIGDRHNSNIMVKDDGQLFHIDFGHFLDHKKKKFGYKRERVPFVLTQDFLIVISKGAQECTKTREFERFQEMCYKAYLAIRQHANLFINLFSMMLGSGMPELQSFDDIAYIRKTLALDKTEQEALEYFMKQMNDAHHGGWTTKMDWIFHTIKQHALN
PIK3CA (human), P42336 [H1047Y], sequence (P42336 whole entry H1047Y, looked up): as the sequence (P42336 whole entry E545K, looked up) above, with K545E, H1047Y counted along it
MKNK1 (human), sequence (Q9BUB5 whole entry, looked up): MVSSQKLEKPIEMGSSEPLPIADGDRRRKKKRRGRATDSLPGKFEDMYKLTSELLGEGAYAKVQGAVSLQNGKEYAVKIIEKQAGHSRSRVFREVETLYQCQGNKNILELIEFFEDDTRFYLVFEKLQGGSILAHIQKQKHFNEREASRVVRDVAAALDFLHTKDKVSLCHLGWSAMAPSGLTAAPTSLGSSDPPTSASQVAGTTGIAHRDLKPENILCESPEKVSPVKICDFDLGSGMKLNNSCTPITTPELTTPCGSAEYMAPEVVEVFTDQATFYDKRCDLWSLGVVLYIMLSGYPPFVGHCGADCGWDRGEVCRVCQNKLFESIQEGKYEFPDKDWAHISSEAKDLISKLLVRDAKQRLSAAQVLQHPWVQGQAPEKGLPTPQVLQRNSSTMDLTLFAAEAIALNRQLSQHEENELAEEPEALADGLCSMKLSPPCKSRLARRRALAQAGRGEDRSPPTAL

SMILES: CN(C)C/C=C/C(=O)Nc1cccc(C(=O)Nc2ccc(Nc3nccc(-c4c(-c5ccccc5)nn5ccccc45)n3)cc2)c1
- kinase still bound, per cent of control [1]: 14%
- kinase still bound, per cent of control (BMP2K (human)): 100%
- kinase still bound, per cent of control [2]: 21%
- kinase still bound, per cent of control (CDK11B (human)): 43%
- kinase still bound, per cent of control (CDK4 CCND1 (human)): 79%
- kinase still bound, per cent of control (CDK7 (human)): 83%
- kinase still bound, per cent of control (CDKL1 (human)): 100%
- kinase still bound, per cent of control (CLK3 (human)): 100%
- kinase still bound, per cent of control (DCLK2 (human)): 100%
- kinase still bound, per cent of control [3]: 7%
- kinase still bound, per cent of control (EPHA1 (human)): 38%
- kinase still bound, per cent of control (FER (human)): 87%
- kinase still bound, per cent of control [4]: 13%
- kinase still bound, per cent of control (GRK4 (human)): 93%
- kinase still bound, per cent of control [5]: 4%
- kinase still bound, per cent of control (LCK (human)): 8.6%
- kinase still bound, per cent of control (MAP2K2 (human)): 88%
- kinase still bound, per cent of control (MAP3K1 (human)): 96%
- kinase still bound, per cent of control (MARK4 (human)): 100%
- kinase still bound, per cent of control (MAST1 (human)): 99%
- kinase still bound, per cent of control (MKNK1 (human)): 96%
- kinase still bound, per cent of control (MST1R (human)): 100%
- kinase still bound, per cent of control (MYLK3 (human)): 91%
- kinase still bound, per cent of control (NUAK1 (human)): 83%
- kinase still bound, per cent of control (NUAK2 (human)): 89%
- kinase still bound, per cent of control (PAK3 (human)): 52%
- kinase still bound, per cent of control (PHKG1 (human)): 100%
- kinase still bound, per cent of control [6]: 100%
- kinase still bound, per cent of control [7]: 93%
- kinase still bound, per cent of control (PIK3CD (human)): 95%
- kinase still bound, per cent of control (PRKCI (human)): 46%
- kinase still bound, per cent of control (PRKD2 (human)): 15%
- kinase still bound, per cent of control (RPS6KA1 KD2 (human)): 36%
- kinase still bound, per cent of control (RPS6KA5 KD1 (human)): 100%
- kinase still bound, per cent of control (RPS6KA6 KD1 (human)): 91%
- kinase still bound, per cent of control (SRPK1 (human)): 90%
- kinase still bound, per cent of control (SRPK3 (human)): 100%
- kinase still bound, per cent of control (STK17B (human)): 100%
- kinase still bound, per cent of control (STK38 (human)): 97%
- kinase still bound, per cent of control (TIE1 (human)): 23%
- kinase still bound, per cent of control [8]: 100%
- kinase still bound, per cent of control (ZAP70 (human)): 96%

SMILES: Cc1cc(NC(=O)c2cccc(NC(=O)/C=C/CN(C)C)c2)ccc1Nc1nccc(-c2cccnc2)n1
- kinase still bound, per cent of control [1]: 81%
- kinase still bound, per cent of control (BMP2K (human)): 94%
- kinase still bound, per cent of control [2]: 100%
- kinase still bound, per cent of control (CDK11B (human)): 100%
- kinase still bound, per cent of control (CDK4 CCND1 (human)): 92%
- kinase still bound, per cent of control (CDK7 (human)): 39%
- kinase still bound, per cent of control (CDKL1 (human)): 88%
- kinase still bound, per cent of control (CLK3 (human)): 100%
- kinase still bound, per cent of control (DCLK2 (human)): 94%
- kinase still bound, per cent of control [3]: 81%
- kinase still bound, per cent of control (EPHA1 (human)): 99%
- kinase still bound, per cent of control (FER (human)): 100%
- kinase still bound, per cent of control [4]: 82%
- kinase still bound, per cent of control (GRK4 (human)): 96%
- kinase still bound, per cent of control [5]: 4.4%
- kinase still bound, per cent of control (LCK (human)): 100%
- kinase still bound, per cent of control (MAP2K2 (human)): 91%
- kinase still bound, per cent of control (MAP3K1 (human)): 100%
- kinase still bound, per cent of control (MARK4 (human)): 97%
- kinase still bound, per cent of control (MAST1 (human)): 97%
- kinase still bound, per cent of control (MKNK1 (human)): 81%
- kinase still bound, per cent of control (MST1R (human)): 100%
- kinase still bound, per cent of control (MYLK3 (human)): 100%
- kinase still bound, per cent of control (NUAK1 (human)): 100%
- kinase still bound, per cent of control (NUAK2 (human)): 70%
- kinase still bound, per cent of control (PAK3 (human)): 100%
- kinase still bound, per cent of control (PHKG1 (human)): 87%
- kinase still bound, per cent of control [6]: 100%
- kinase still bound, per cent of control [7]: 96%
- kinase still bound, per cent of control (PIK3CD (human)): 95%
- kinase still bound, per cent of control (PRKCI (human)): 93%
- kinase still bound, per cent of control (PRKD2 (human)): 100%
- kinase still bound, per cent of control (RPS6KA1 KD2 (human)): 88%
- kinase still bound, per cent of control (RPS6KA5 KD1 (human)): 100%
- kinase still bound, per cent of control (RPS6KA6 KD1 (human)): 100%
- kinase still bound, per cent of control (SRPK1 (human)): 99%
- kinase still bound, per cent of control (SRPK3 (human)): 70%
- kinase still bound, per cent of control (STK17B (human)): 72%
- kinase still bound, per cent of control (STK38 (human)): 97%
- kinase still bound, per cent of control (TIE1 (human)): 91%
- kinase still bound, per cent of control [8]: 80%
- kinase still bound, per cent of control (ZAP70 (human)): 79%
